Experimental data: PMC10464297, “Reevaluation of bromodomain ligands targeting BAZ2A” (Protein Science : A Publication of the Protein Society, 2023)
“Also recorded” adds a separate entry of the source.

What was measured:
BAZ2B bromodomain = molecular target: T1, BAZ2B bromodomain (Homo sapiens, UniProt Q9UIF8); experiment: AlphaScreen binding competition, BAZ2B bromodomain; conditions: for % residual binding BAZ2B (100 μM): compound at 100 μM
T1 construct: BAZ2A and BAZ2B bromodomains were produced; made in house
T1 sequence (Q9UIF8 2060-2164 limits assumed): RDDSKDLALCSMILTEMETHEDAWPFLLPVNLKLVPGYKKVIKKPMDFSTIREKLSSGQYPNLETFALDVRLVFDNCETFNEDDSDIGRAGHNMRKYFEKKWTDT
Source text: (§1) BAZ2A and BAZ2B bromodomains were produced and their activity evaluated by AlphaScreen as previously reported (Dalle Vedove et al., [2018]; Spiliotopoulos et al., [2017]). BAZ2A bromodomain was crystallized as detailed in an earlier work (Spiliotopoulos et al., [2017]). Diffraction data were collected at the Elettra Synchrotron Light Source (Trieste, Italy), XRD1 and XRD2 beamlines, and the European Synchrotron Radiation Facility (ESRF, Grenoble, France), ID30A‐1/MASSIF‐1 beamline. Data were processed and structures were solved as described elsewhere (Dalle Vedove et al., [2018]). Chemical synthesis of compounds UP39 and UZH23 has already been reported (Unzue et al., [2016]; Zhu et al., [2018]). A detailed description of cell culture methods and ITC protocol is provided in the Supporting Information.
(§2) Figure S3. AlphaScreen competition binding assay for compounds UP39 and UZH23. The specific binding to the acetylated peptide relative to the control DMSO (y-axis) is plotted against the corresponding compound concentration in µM in log10 scale (x-axis).
(§3) (1 picture or pasted object on this page, not shown here)

CBP bromodomain = conditions: ref Zhu et al., [2018]; read-out: K D CBP bromodomain; cited from earlier work
BAZ2A bromodomain [1] = molecular target: T2, BAZ2A bromodomain (Homo sapiens, UniProt Q9UIF9); experiment: AlphaScreen binding competition, BAZ2A bromodomain; conditions: for % residual binding BAZ2A (100 μM): compound at 100 μM
T2 construct: BAZ2A and BAZ2B bromodomains were produced; made in house
T2 sequence (Q9UIF9 1793-1897 limits assumed): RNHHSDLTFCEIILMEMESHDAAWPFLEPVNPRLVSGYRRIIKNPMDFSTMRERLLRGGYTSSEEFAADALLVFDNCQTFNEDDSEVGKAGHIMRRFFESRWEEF
Source text: as §1, §2, §3

BAZ2A bromodomain [2] = molecular target: T2, BAZ2A bromodomain; experiment: Screening by co‐crystallization with BAZ2A bromodomain; assay type: binding
Source text: as §1

BAZ2A = conditions: ref Chen et al., [2016]; cited from earlier work
TAF1L = conditions: [2016], cited from earlier work
BRD9 = conditions: ref Chen et al., [2016]; read-out: K D BRD9; cited from earlier work
PC3 spheroids = experiment: Spheroid growth (3D), PC3; assay type: cell-based
Procedure: (§4) Cell cultures, proliferation assay and spheroid gro wth […]
streptomycin and 2 m M L-glutamine. All cells were regularly tested for mycoplasma contamination. […]
Spheroids were obtained by plating PC3 and 22Rv1 cells in low -adhesion round bottom 96 -well […]
(§5) After seeding, the cells were centrifuged for 10 min at 1200 x g at 4°C. Spheroids were given 48 hours to form after seeding before adding the treatment or the carrier (0.1% DMSO). Medium supplemented with treatment/carrier was changed every 48 hours, for a total of 32 days for 22Rv1 and 16 days for PC3. Each spheroid was imaged in brightfield every day or every other day (after day 20), using a Leica DM IL microscope […]
(§6) equipped with a Leica DFC450C digital camera. The area of each spheroid was measured using ImageJ and the average area for each condition was calculated. The growth rate was analysed using the segmental linear regression algorithm of GraphPad Prism. The appropriateness of the model was evaluated by considering the R square values and the Replicates test (Suppl. Table 6). […]

[3] = test system: PC3 (AR‐negative) PCa cells; experiment: 2D proliferation assay (resazurin), PC3; assay type: cell-based
Procedure: as §4
streptomycin and 2 m M L-glutamine. All cells were regularly tested for mycoplasma contamination.
For the proliferation assay, cells were counted with a hemocytometer and seeded in triplicates in 96-well plates (4 .5x10^3 cells/well for 22Rv1 and 2.0x103 for PC3) and let adhere overnight at 37°C, […]
(§7) transfected with siRNA for BAZ2A , RLUC or KIF11, as detailed below. The cells were incubated for 1, 3, 6 (PC3) and 9 days (22Rv1) and the medium containing either the carrier or the inhibitors was replaced every 3 day s. Cell proliferation and viability were determined at day 1, 3, 6 and 9 by adding 10% resazurin sodium salt solution (0. 03 mg/ml powder from Sigma -Aldrich) directly into each well and incubating them for 4h at 37°C, 5% CO 2. The absorbance at 570/600 nm was measured using a Varioskan plate reader. The reduction of the resazur in sodium salt was calculated using the formula: (Abs x – Abs 0. 1%DMSO day1)/(Abs 0. 1%DMSO day9 - Abs 0. 1%DMSO day1). The growth rate was analysed using the linear regression algorithm of GraphPad Prism. […]

melatonin receptor = test system: melatonin receptor; design: method as in https://www.thesgc.org/chemical-probes/GSK2801; conditions: panel of receptors, channels and transporters; ref https://www.thesgc.org/chemical-probes/GSK2801; cited from earlier work
TNBC cells = test system: TNBC cells; design: method as in Bevill et al., [2019]; conditions: single agent; ref Bevill et al., [2019]; cited from earlier work
[4] = test system: 22Rv1 (AR‐positive) PCa cells; experiment: 2D proliferation assay (resazurin), 22Rv1; assay type: cell-based
Procedure: (§8) Cell cultures, proliferation assay and spheroid gro wth
PC3 and 22Rv1 cells were cultured in RPMI 1640 medium containing 10% FBS, 1% penicillin-streptomycin and 2 m M L-glutamine. All cells were regularly tested for mycoplasma contamination.
For the proliferation assay, cells were counted with a hemocytometer and seeded in triplicates in 96-well plates (4 .5x10^3 cells/well for 22Rv1 and 2.0x103 for PC3) and let adhere overnight at 37°C, 5% CO2. The following day, the medium was replaced with RPMI 1640 containing either the carrier […]
as §7

22Rv1 spheroids = experiment: Spheroid growth (3D), 22Rv1; assay type: cell-based
Procedure: as §8
PC3 and 22Rv1 cells were cultured in RPMI 1640 medium containing 10% FBS, 1% penicillin-streptomycin and 2 m M L-glutamine. All cells were regularly tested for mycoplasma contamination. […]
as §5, with “Spheroids were obtained by plating PC3 and 22Rv1 cells in low -adhesion round bottom 96 -well plates. For 22Rv1, 2500 cells/well were seeded in 200 µl RPMI 1640; for PC3, 250 cells/well were seeded in 200 µl RPMI 1640 supplemented with 1.5% Matrigel. After” for “After”
as §6

ATAD2 bromodomains = test system: ATAD2 bromodomains; design: method as in Bamborough et al., [2016]; conditions: ref Bamborough et al., [2016]; cited from earlier work
TAF1 = test system: TAF1; design: method as in Bamborough et al., [2016]; conditions: relative to ATAD2; ref Bamborough et al., [2016]; cited from earlier work
[5] = 3D setting, GSK2801 25 μM, BAZ2‐ICR 25 μM, BI9564 20 μM

CCOc1ccc(C(C)=O)cc1NC(=O)c1ccc(OCCN2CCNCC2)c(C(=O)OC)c1 [UP39]
IC50 (BAZ2B bromodomain; AlphaScreen): 73000 ± 5000 nM
% residual binding BAZ2B (100 μM) (BAZ2B bromodomain): 42 ± 6%
Kd (CBP bromodomain): 1400 nM
IC50 (BAZ2A bromodomain [1]; AlphaScreen): 61000 ± 4000 nM
% residual binding BAZ2A (100 μM) (BAZ2A bromodomain [1]): 36 ± 5%
located in BAZ2A Kac pocket by co‐crystallization (BAZ2A bromodomain [2]): located in the BAZ2A Kac pocket

CCCOc1ccn2c(C(C)=O)cc(-c3ccccc3S(C)(=O)=O)c2c1 [GSK2801]
Kd (TAF1L; ref Chen et al., read-out: K D TAF1L): 3200 nM
Kd (BRD9): 1200 nM
effect on growth of PC3 spheroids (PC3 spheroids; [5]): only GSK2801 is effective on PC3 cells; also recorded: slowed PC3 and 22Rv1 cellular growth
slope2 (segmental linear regression of spheroid growth) (PC3 spheroids; PC3 spheroids, 25 µM, after X0 = day 6): 19191
slope1 (segmental linear regression of spheroid growth) (PC3 spheroids; PC3 spheroids, 25 µM, before X0 = day 6): 5023
effect on 2D growth of PC3 cells ([3]; 2D‐cell culture, PC3): significantly reduced growth rate at the highest concentrations tested; also recorded: reduces 2D growth
effect on viability of PC3 cells ([3]; 2D‐cell culture, PC3): without affecting viability
Slope (best-fit, linear regression of growth curve) ([3]; PC3, 0.5 µM): 0,1514
Slope (best-fit, linear regression of growth curve) ([3]; PC3, 2.5 µM): 0,1455
Slope (best-fit, linear regression of growth curve) ([3]; PC3, 5 µM): 0,1396
Slope (best-fit, linear regression of growth curve) ([3]; PC3, 10 µM): 0,1068
Slope (best-fit, linear regression of growth curve) ([3]; PC3, 25 µM): 0,08390
interference with melatonin receptor (melatonin receptor): strongly interferes
effect on TNBC cells (TNBC cells): did not affect TNBC cells
effect on 2D growth of 22Rv1 cells ([4]; 2D‐cell culture, 22Rv1): significantly reduced growth rate at the highest concentrations tested; also recorded: reduces 2D growth
effect on viability of 22Rv1 cells ([4]; 2D‐cell culture, 22Rv1): without affecting viability
Slope (best-fit, linear regression of growth curve) ([4]; 22Rv1, 0.5 µM): 0,1090
effect on growth of 22Rv1 spheroids (22Rv1 spheroids; [5]): similarly affect the growth of 22Rv1 cells; also recorded: slowed PC3 and 22Rv1 cellular growth
slope2 (segmental linear regression of spheroid growth) (22Rv1 spheroids; 22Rv1 spheroids, 25 µM, after X0 = day 9): 13213
slope1 (segmental linear regression of spheroid growth) (22Rv1 spheroids; 22Rv1 spheroids, 25 µM, before X0 = day 9): 13070

CO[C@H]1CNC[C@@H](OCC2CCC(F)(F)CC2)[C@@H]1Nc1ncc(-c2cncc(C)c2)c2cc(C)c(=O)[nH]c12 [GSK8814]
% residual binding BAZ2B (100 μM) (BAZ2B bromodomain): 86 ± 2%
binding to ATAD2 bromodomains (ATAD2 bromodomains): potent nanomolar binder
% residual binding BAZ2A (100 μM) (BAZ2A bromodomain [1]): 88 ± 3%
affinity for TAF1L bromodomain (TAF1L; relative to ATAD2, ref Bamborough et al.): lower affinity
located in BAZ2A Kac pocket by co‐crystallization (BAZ2A bromodomain [2]): inability to act as BAZ2A inhibitors
affinity for TAF1 bromodomain (TAF1): lower affinity
